Key:
[1] = Tobacco, caffeine and other drug addictions in patients under treatment; type: in vivo, human
Excerpt: For the treatment of tobacco addiction, we found it advisable to increase the frequency of the intake of L-aspartic acid to 10-12 small doses per day in order to control the anxiety to smoke.
In our clinical trials, some of our patients were addicted to some soft drugs like coffee (caffeine), tobacco (nicotine), Prozac (fluoxetin), Trankimazin (alprazolam), Tranxilium (di-potasium chloride-acetate). In general, they were able to reduce their consumption of these materials while undergoing our recommended treatments. […] In tobacco release addiction programs, some small supplementary doses (0.5-1.0 g. every 30-45 minutes) may be necessary during the day to stop the patient's anxiety.
Smoking patients who expressed a desire to stop were advised to prepare a small bottle of water (or even fruit juice) with some small spoonfuls of L-aspartic acid, and to drink some small swigs of this throughout the day to control their anxiety levels.

[2] = Digestion problems of patients under treatment; type: in vivo, human; conditions: more than three hundred patients, after two or three weeks
[3] = Sexual potency problems of male patients under treatment; type: in vivo, human; conditions: after 2-3 months of treatment
Excerpt: A number of the male patients in our trails initially complained of erectile disfunction and other sexual performance problems. […] These improvements were most significant for those patients who had reported problems of erectile disfunction; with these patients generally reporting improvements in all aspects of their sexual activities, including their sexual appetency and ability to ejaculate.

[4] = Clinical trial in non-diabetic patients with blood cholesterol excess; type: in vivo, human; conditions: more than 200 non-diabetic patients, four daily takings of 1-3 grams
Excerpt: These clinical trials included a group of more than 200 non-diabetic patients with blood cholesterol excesses. The basic treatment (i.e., four daily […] of 1-3 grams of L-aspartic acid and the elimination of starches from one's diet) for these patients was the same as that described above, plus: (i) complete elimination of carbohydrates from the diet, (ii) inclusion of unsaturated and polyunsaturated fat in all meals, and (iii) inclusion in some meals of cholesterol.

[5] = Clinical trial in patients suffering from hypertension; type: in vivo, human
Excerpt: Clinical trials for 250 patients suffering from hypertension (156 men and 94 women, with ages between 19 and 70 years) are reported below.
A summary of our clinical results are shown in Table 3 for average daily L-aspartic acid consumptions of 12 g/day (four daily 3 g doses).

[6] = Ketosis in patients under treatment
[7] = Clinical trial in type-1 and type-2 diabetes patients; type: in vivo, human
Excerpt: There is, in principle, no special protocol for patients suffering from diabetes (both types), which is different from the general one described above. Type-2 diabetes is usually associated with overweight and/or excess of fat in the body, so its protocol should not differ substantially from the general one presented above. With regard to type-I diabetes, since this treatment allows cells to consume less glucose, as it enhances their capacity to consume fat, it can reduce one's insulin dependence.
Diabetic patients were told to take their values of blood glucose regularly (three or four times a day during the first months) until they achieved good blood glucose values. During the treatment, when it was seen that blood glucose levels were decreasing, the patients were instructed to reduce the doses of drugs or insulin, until removing them completely, to avoid hypoglycemia.
Our clinical trails involved a group of 200 patients, […]. The patients were divided into four groups: (i) Type-2 diabetes patients who had been recently diagnosed and were not yet taking any oral drugs or insulin treatments, (ii) Type-2 diabetes patients who had been taking oral drugs (usually sulphonylurea derivatives) for up to several years, (iii) Type-2 diabetes patients who were suffering for many years, and had started their treatment with oral drugs and, after several years, progressed to insulin injections, which were eventually being supplemented with oral drugs, and (iv) Type-1 diabetes patients, all of them under insulin treatment. Most of these patients were also suffering from other related health problems (e.g., overweight or obesity, hypertension, sexual potency problems).
The basic treatment guidelines for these diabetes patients were essentially the same as that which was indicated above for our obesity and overweight patients (i.e., four daily takings of 1-3 grams of L-aspartic acid and the elimination of starches from one's diet).

[8] = Clinical trial of L-aspartic acid plus starch-free diet in obesity and overweight
[9] = Migraines, headaches and menstrual pains reported by patients under treatment; type: in vivo, human; conditions: improvement in first or second month, in some cases several months
[10] = Patients with high blood uric acid levels under treatment; type: in vivo, human; conditions: sixty patients
Procedure: Sixty patients participating in this program had high blood uric acid levels.
Our treatment achieved a significant decrease in the uric acid levels of these patients: from initial levels of between 7.1 and 9.4 mg/100 mL to, after usually 2-4 months treatment, normal values.

For N[C@@H](CC(=O)O)C(=O)O [L-aspartic acid], the “daily number of cigarettes smoked” value ([1]; most tobacco-addicted patients interested in ceasing, after 2-4 weeks) was “able to reduce their daily numbers of cigarettes smoked”, the caffeine addiction ([1]; patients consuming 8-12 daily coffees or caffeine soft drinks) was “drastically eliminate this dependence in only a few weeks” and the smoking cessation ([1]; patients wishing to stop, small swigs through the day, after several weeks) was “all of these patients had ceased smoking”. The digestion problems [2] was “almost total resolution of their digestion problems”, the “erectile disfunction and other sexual performance problems” value [3] was “significant diminishments of their problems” and the “blood cholesterol, tryglycerides and total lipid levels” value [4] was “clear improvement”. The “reduction in % body fat” value ([5]; 250 hypertension patients, 12 g/day) was “approximately 10%”, the “mean time to attainment of recommended normal blood pressures” value ([5]; 250 patients, 12 g/day (four daily 3 g doses)) was 2.8 months and the “occurrence of ketosis under treatment” value ([6]; all patients under treatment) was “None of the patients under our treatment have suffered any kind of ketosis”. The “blood ketone bodies in patients with signs of ketosis before treatment” value ([6]; relatively short time after beginning treatments) was “achieved normal blood concentration of ketone bodies”, the “reduction of oral drugs and/or insulin injections” value ([7]; all diabetes patients) was “able to reduce to some degree their oral drugs and/or insulin injections” and the “glycosylated haemoglobin, cholesterol, tryglycerides and total lipids in blood analysis” value ([7]; diabetes patients) was “drastically reduced”. For the same compound, the “reduction in glycosylated haemoglobin levels” value ([7]; diabetes patients, over the duration of treatment) was at least 20%, the “time to change from insulin injections to oral diabetes drugs” value ([7]; most type-2 patients receiving insulin injections) was 1-2 months and the “reduction in glycosylated haemoglobin level, single patient” value ([7]; patient Example 32 in Table 2) was 38.05%. For the same compound, the “onset of improvement in glycemia levels” value ([7]; two type-2 patients (FIGS. 6 and 7)) was “clear from the first week of treatment”, the “time to good control of glycemia and discontinuing diabetes medications” value ([7]; two type-2 patients (FIGS. 6 and 7), diabetes for over 10 years) was 1-2 months and the “reduction in insulin dosages” value ([7]; type-1 diabetes patients, over periods of 3-12 months) was 20-30%. For the same compound, the “safety of prolonged treatment (blood chemical analysis)” value ([8]; duration as long as one wants) was “without danger of intoxication”, the “fat burnt per day” value ([8]; estimated from water unloaded, ratio 14/18) was 200 to 600 g and the “biochemical and hematological parameters in periodic blood analysis” value ([8]; human, in vivo) was “consistently showed improvements”. The “side effect from reduced drinking” value ([8]; in some cases) was “hard stools and difficulty with bowel movements”, the weight loss outcome ([8]; more than 1,500 patients, ages 18 to 83) was “Successful weight losses in all cases” and the “usual weight loss rate” value ([8]; obesity patients, also printed as 11-13 pounds per month) was 5-6 kg per month. The “carbohydrate abstinence syndrome (weakness, feeling sick)” value ([8]; on elimination of carbohydrate-rich foods) was “only during their first two weeks of participation”, the “fat as percentage of body mass after treatment” value ([8]; person (FIG. 5), 41.1% at start, after 290 days) was 23% and the “body fat mass after treatment” value ([8]; person (FIG. 5), 53.5 kg of fat at start, after 290 days) was 19.1 kg. The “body weight after treatment” value ([8]; person (FIG. 5), 130 kg at start, after 290 days of treatment) was 83 kg, the weight reduction ([8]; person (FIG. 5), after 290 days of treatment) was 47 kg and the “change in percentage of body fat” value ([8]; versus conventional hypocaloric diets) was “significant reductions in our patients' percentages of body fat”. The “anxiety, hunger pangs or energy loss during treatment” value ([8]; without sedative or stimulant drug) was “no significant anxiety, hunger pangs or energy loss”, the “number of patients reporting migraines, headaches and menstrual pains” value [9] was “significant reduction” and the “blood uric acid level after treatment” value ([10]; initial levels between 7.1 and 9.4 mg/100 mL) was “normal values”. For the same compound, the “treatment time to normal uric acid values” ([10]; usually) was 2-4 months.

Reference: patent US20060183803A1, “L-aspartic acid for the treatment of assorted health problems” (Instituto del Metabolismo Celular, S.L., priority 2005, published 2006)
